Laboratory results as given in patent US10167262B2, “Herbicidal substituted 3-arylpyrazoles” (FMC CORPORATION, priority 2014, dated 2019).

Tested on: barnyardgrass (Echinochloa crus-galli)
Assay: Test B flooded paddy test, plant response rating 0-100
Format: in vivo
Settings: Flood, 250 g ai/ha; scale 0 to 100 (0 no effect, 100 complete control); 13 to 15 days
Procedure, shortened: (§1)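 Pots were flooded to 3 cm above the soil surface at treatment, compound applied directly to the paddy water, and that depth held throughout. Plants were kept in a greenhouse for 13 to 15 days, then visually rated against untreated controls.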

SMILES | Plant response rating, Barnyardgrass
O=Cn1cc(C(=O)c2ccccc2)c(-c2cc(Cl)cc(Cl)c2)n1 [Compound 28] | 0

Tested on: ducksalad (Heteranthera limosa)
Assay: as above
Format: in vivo
Settings: Flood, 250 g ai/ha; scale 0 to 100 (0 no effect, 100 complete control); 13 to 15 days
Procedure, shortened: as §1

SMILES | Plant response rating, Ducksalad
O=Cn1cc(C(=O)c2ccccc2)c(-c2cc(Cl)cc(Cl)c2)n1 [Compound 28] | 0

Tested on: rice (Oryza sativa)
Assay: as above
Format: in vivo
Settings: Flood, 250 g ai/ha; scale 0 to 100 (0 no effect, 100 complete control); 13 to 15 days
Procedure, shortened: as §1

SMILES | Plant response rating, Rice
O=Cn1cc(C(=O)c2ccccc2)c(-c2cc(Cl)cc(Cl)c2)n1 [Compound 28] | 0

Tested on: sedge, umbrella (small-flower umbrella sedge, Cyperus difformis)
Assay: as above
Format: in vivo
Settings: Flood, 250 g ai/ha; scale 0 to 100 (0 no effect, 100 complete control); 13 to 15 days
Procedure, shortened: as §1

SMILES | Plant response rating, Sedge, Umbrella
O=Cn1cc(C(=O)c2ccccc2)c(-c2cc(Cl)cc(Cl)c2)n1 [Compound 28] | 0

Tested on: barnyardgrass (Echinochloa crus-galli)
Assay: Test C pre-/postemergence greenhouse test, plant response rating 0-100
Format: in vivo
Settings: Postemergence, 62 g ai/ha
Procedure, shortened: (§2)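 Plants were treated either at seeding (soil of loam and sand) or as 2–18 cm seedlings in a sphagnum peat mix, using test chemicals in a surfactant-containing non-phytotoxic solvent. Visual assessment relative to controls followed 13–15 days later.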

SMILES | Plant response rating (0 to 100), Barnyardgrass
O=Cn1cc(C(=O)c2ccccc2)c(-c2cc(Cl)cc(Cl)c2)n1 [Compound 28] | 0

Same assay, conditions: Postemergence, 125 g ai/ha; scale 0 to 100

SMILES | Plant response rating, Barnyardgrass
O=Cn1cc(C(=O)c2ccccc2)c(-c2cc(Cl)cc(Cl)c2)n1 [Compound 28] | 0

Same assay, conditions: Postemergence, 250 g ai/ha; scale 0 to 100

SMILES | Plant response rating, Barnyardgrass
O=Cn1cc(C(=O)c2ccccc2)c(-c2cc(Cl)cc(Cl)c2)n1 [Compound 28] | 0

Same assay, conditions: Postemergence, 500 g ai/ha; scale 0 to 100

SMILES | Plant response rating, Barnyardgrass
O=Cn1cc(C(=O)c2ccccc2)c(-c2cc(Cl)cc(Cl)c2)n1 [Compound 28] | 0

Same assay, conditions: Preemergence, 62 g ai/ha

SMILES | Plant response rating, Barnyardgrass
O=Cn1cc(C(=O)c2ccccc2)c(-c2cc(Cl)cc(Cl)c2)n1 [Compound 28] | 0

Same assay, conditions: Preemergence, 125 g ai/ha

SMILES | Plant response rating, Barnyardgrass
O=Cn1cc(C(=O)c2ccccc2)c(-c2cc(Cl)cc(Cl)c2)n1 [Compound 28] | 0

Same assay, conditions: Preemergence, 250 g ai/ha

SMILES | Plant response rating, Barnyardgrass
O=Cn1cc(C(=O)c2ccccc2)c(-c2cc(Cl)cc(Cl)c2)n1 [Compound 28] | 0

Same assay, conditions: Preemergence, 500 g ai/ha

SMILES | Plant response rating, Barnyardgrass
O=Cn1cc(C(=O)c2ccccc2)c(-c2cc(Cl)cc(Cl)c2)n1 [Compound 28] | 0

Tested on: oilseed rape (Brassica napus)
Assay: as above
Format: in vivo
Settings: Postemergence, 62 g ai/ha
Procedure, shortened: as §2

SMILES | Plant response rating (0 to 100), Oilseed Rape
O=Cn1cc(C(=O)c2ccccc2)c(-c2cc(Cl)cc(Cl)c2)n1 [Compound 28] | 80

Same assay, conditions: Postemergence, 125 g ai/ha

SMILES | Plant response rating (0 to 100), Oilseed Rape
O=Cn1cc(C(=O)c2ccccc2)c(-c2cc(Cl)cc(Cl)c2)n1 [Compound 28] | 85

Same assay, conditions: Postemergence, 250 g ai/ha; scale 0 to 100

SMILES | Plant response rating, Oilseed Rape
O=Cn1cc(C(=O)c2ccccc2)c(-c2cc(Cl)cc(Cl)c2)n1 [Compound 28] | 85

Same assay, conditions: Postemergence, 500 g ai/ha; scale 0 to 100

SMILES | Plant response rating, Oilseed Rape
O=Cn1cc(C(=O)c2ccccc2)c(-c2cc(Cl)cc(Cl)c2)n1 [Compound 28] | 95

Same assay, conditions: Preemergence, 62 g ai/ha

SMILES | Plant response rating, Oilseed Rape
O=Cn1cc(C(=O)c2ccccc2)c(-c2cc(Cl)cc(Cl)c2)n1 [Compound 28] | 5

Same assay, conditions: Preemergence, 125 g ai/ha

SMILES | Plant response rating, Oilseed Rape
O=Cn1cc(C(=O)c2ccccc2)c(-c2cc(Cl)cc(Cl)c2)n1 [Compound 28] | 30

Same assay, conditions: Preemergence, 250 g ai/ha

SMILES | Plant response rating, Oilseed Rape
O=Cn1cc(C(=O)c2ccccc2)c(-c2cc(Cl)cc(Cl)c2)n1 [Compound 28] | 98

Same assay, conditions: Preemergence, 500 g ai/ha

SMILES | Plant response rating, Oilseed Rape
O=Cn1cc(C(=O)c2ccccc2)c(-c2cc(Cl)cc(Cl)c2)n1 [Compound 28] | 100

Tested on: waterhemp (common waterhemp, Amaranthus rudis)
Assay: as above
Format: in vivo
Settings: Postemergence, 62 g ai/ha
Procedure, shortened: as §2

SMILES | Plant response rating (0 to 100), Waterhemp
O=Cn1cc(C(=O)c2ccccc2)c(-c2cc(Cl)cc(Cl)c2)n1 [Compound 28] | 95

Same assay, conditions: Postemergence, 125 g ai/ha

SMILES | Plant response rating (0 to 100), Waterhemp
O=Cn1cc(C(=O)c2ccccc2)c(-c2cc(Cl)cc(Cl)c2)n1 [Compound 28] | 98

Same assay, conditions: Postemergence, 250 g ai/ha; scale 0 to 100

SMILES | Plant response rating, Waterhemp
O=Cn1cc(C(=O)c2ccccc2)c(-c2cc(Cl)cc(Cl)c2)n1 [Compound 28] | 98

Same assay, conditions: Postemergence, 500 g ai/ha; scale 0 to 100

SMILES | Plant response rating, Waterhemp
O=Cn1cc(C(=O)c2ccccc2)c(-c2cc(Cl)cc(Cl)c2)n1 [Compound 28] | 100

Same assay, conditions: Preemergence, 62 g ai/ha

SMILES | Plant response rating, Waterhemp
O=Cn1cc(C(=O)c2ccccc2)c(-c2cc(Cl)cc(Cl)c2)n1 [Compound 28] | 100

Same assay, conditions: Preemergence, 125 g ai/ha

SMILES | Plant response rating, Waterhemp
O=Cn1cc(C(=O)c2ccccc2)c(-c2cc(Cl)cc(Cl)c2)n1 [Compound 28] | 100

Same assay, conditions: Preemergence, 250 g ai/ha

SMILES | Plant response rating, Waterhemp
O=Cn1cc(C(=O)c2ccccc2)c(-c2cc(Cl)cc(Cl)c2)n1 [Compound 28] | 100

Same assay, conditions: Preemergence, 500 g ai/ha

SMILES | Plant response rating, Waterhemp
O=Cn1cc(C(=O)c2ccccc2)c(-c2cc(Cl)cc(Cl)c2)n1 [Compound 28] | 100

Tested on: waterhemp_RES2, (ALS & HPPD resistant common waterhemp, Amaranthus rudis)
Assay: Test E postemergence greenhouse test, plant response rating 0-100
Format: in vivo
Settings: 31 g ai/ha, scale 0 to 100
Procedure, shortened: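 Resistant waterhemp biotypes grown in peat/vermiculite medium and treated postemergence at 2–18 cm height (1- to 4-leaf stage). Kept in greenhouse 14 to 21 days, then visually rated against untreated controls on a 0–100 scale (0 no effect, 100 complete control).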

SMILES | Plant response rating, Waterhemp_RES2
O=Cn1cc(C(=O)c2ccccc2)c(-c2cc(Cl)cc(Cl)c2)n1 [Compound 28] | 50

Same assay, conditions: 62 g ai/ha, scale 0 to 100

SMILES | Plant response rating, Waterhemp_RES2
O=Cn1cc(C(=O)c2ccccc2)c(-c2cc(Cl)cc(Cl)c2)n1 [Compound 28] | 60

Same assay, conditions: 125 g ai/ha, scale 0 to 100

SMILES | Plant response rating, Waterhemp_RES2
O=Cn1cc(C(=O)c2ccccc2)c(-c2cc(Cl)cc(Cl)c2)n1 [Compound 28] | 80

Same assay, conditions: 250 g ai/ha, scale 0 to 100

SMILES | Plant response rating, Waterhemp_RES2
O=Cn1cc(C(=O)c2ccccc2)c(-c2cc(Cl)cc(Cl)c2)n1 [Compound 28] | 85

Same assay, conditions: 500 g ai/ha, scale 0 to 100

SMILES | Plant response rating, Waterhemp_RES2
O=Cn1cc(C(=O)c2ccccc2)c(-c2cc(Cl)cc(Cl)c2)n1 [Compound 28] | 90
